Measurements published in ChEMBL document CHEMBL2401728, “An unexpected Dimroth rearrangement leading to annelated thieno[3,2-d][1,2,3]triazolo[1,5-a]pyrimidines with potent antitumor activity” (Eur J Med Chem, 2013).

Tests used:
CAKI-1 [1] = test: Cytotoxicity against human Caki1 cells assessed as cellular growth at 100 uM after 48 hrs by SRB assay relative to control; assay type: functional
MOLT-4 [2] = test: Cytotoxicity against human MOLT4 cells assessed as cellular growth at 100 uM after 48 hrs by SRB assay relative to control; assay type: functional
RPMI-8226 [3] = test: Cytotoxicity against human RPMI8226 cells assessed as cellular growth at 0.1 uM after 48 hrs by SRB assay relative to control; assay type: functional
MOLT-4 [4] = test: Cytotoxicity against human MOLT4 cells assessed as cellular growth at 0.1 uM after 48 hrs by SRB assay relative to control; assay type: functional
HCC 2998 [5] = test: Cytotoxicity against human HCC2998 cells after 48 hrs by SRB assay; assay type: functional; settings: HCC 2998, 48 h
RPMI-8226 [6] = test: Cytotoxicity against human RPMI8226 cells after 48 hrs by SRB assay; assay type: functional; settings: RPMI-8226, 48 h
CAKI-1 [7] = test: Cytotoxicity against human Caki1 cells after 48 hrs by SRB assay; assay type: functional; settings: CAKI-1, 48 h
HCC 2998 [8] = test: Cytotoxicity against human HCC2998 cells assessed as cellular growth at 0.1 uM after 48 hrs by SRB assay relative to control; assay type: functional
MOLT-4 [9] = test: Cytotoxicity against human MOLT4 cells after 48 hrs by SRB assay; assay type: functional; settings: MOLT-4, 48 h
MOLT-4 [10] = test: Cytotoxicity against human MOLT4 cells assessed as cellular growth at 1 uM after 48 hrs by SRB assay relative to control; assay type: functional
HCC 2998 [11] = test: Cytotoxicity against human HCC2998 cells assessed as cellular growth at 1 uM after 48 hrs by SRB assay relative to control; assay type: functional
CAKI-1 [12] = test: Cytotoxicity against human Caki1 cells assessed as cellular growth at 0.1 uM after 48 hrs by SRB assay relative to control; assay type: functional
CAKI-1 [13] = test: Cytotoxicity against human Caki1 cells assessed as cellular growth at 1 uM after 48 hrs by SRB assay relative to control; assay type: functional
RPMI-8226 [14] = test: Cytotoxicity against human RPMI8226 cells assessed as cellular growth at 100 uM after 48 hrs by SRB assay relative to control; assay type: functional
CAKI-1 [15] = test: Cytotoxicity against human Caki1 cells assessed as cellular growth at 0.01 uM after 48 hrs by SRB assay relative to control; assay type: functional
PC-3 [16] = test: Cytotoxicity against human PC3 cells assessed as cellular growth at 0.1 uM after 48 hrs by SRB assay relative to control; assay type: functional
Mus musculus = test: Toxicity in mouse at 100 to 400 mg/kg measured for 2 weeks; assay type: organism-based; design: dose 100-400 mg/kg; settings: in vivo, 336 h
PC-3 [17] = test: Cytotoxicity against human PC3 cells assessed as cellular growth at 1 uM after 48 hrs by SRB assay relative to control; assay type: functional
PC-3 [18] = test: Cytotoxicity against human PC3 cells assessed as cellular growth at 100 uM after 48 hrs by SRB assay relative to control; assay type: functional
HT-29 [19] = test: Cytotoxicity against human HT-29 cells assessed as cellular growth at 0.01 uM after 48 hrs by SRB assay relative to control; assay type: functional
HT-29 [20] = test: Cytotoxicity against human HT-29 cells assessed as cellular growth at 100 uM after 48 hrs by SRB assay relative to control; assay type: functional
HT-29 [21] = test: Cytotoxicity against human HT-29 cells assessed as cellular growth at 0.1 uM after 48 hrs by SRB assay relative to control; assay type: functional
HT-29 [22] = test: Cytotoxicity against human HT-29 cells after 48 hrs by SRB assay; assay type: functional; settings: HT-29, 48 h
[23] = Cytotoxicity against human CNS cancer cells assessed as cellular growth at 10 uM after 48 hrs by SRB assay relative to control; assay type: functional, Cancer cell lines
[24] = Cytotoxicity against human ovarian cancer cells assessed as cellular growth at 10 uM after 48 hrs by SRB assay relative to control; assay type: functional, Cancer cell lines
[25] = Cytotoxicity against human leukemia cells assessed as cellular growth at 10 uM after 48 hrs by SRB assay relative to control; assay type: functional, Leukemia cell
[26] = Cytotoxicity against human melanoma cells assessed as cellular growth at 10 uM after 48 hrs by SRB assay relative to control; assay type: functional, Melanoma cell
[27] = Cytotoxicity against human colon cancer cells assessed as cellular growth at 10 uM after 48 hrs by SRB assay relative to control; assay type: functional, Cancer cell lines
[28] = read-out: LC50 (the source's name)
[29] = read-out: pLC50 (the source's name) (converted)

Structure (SMILES): CN1CCN(CCCn2c3c(sc4ncccc43)c(=O)n3nnc(-c4ccccc4)c23)CC1
- Activity (CAKI-1 [1]): -90%
- Activity (MOLT-4 [2]): -56%
- Activity (RPMI-8226 [3]): 100%
- Activity (MOLT-4 [4]): 102%
- GI50 (HCC 2998 [5]; read-out: GI50): 1.88 µM
- CC50 (HCC 2998 [5]; [28]): 6.39 µM
- TGI (HCC 2998 [5]; read-out: TGI): 3.47 µM
- GI50 (HCC 2998 [5]; read-out: pGI50 (converted)): 1.86 µM
- CC50 (HCC 2998 [5]; [29]): 6.46 µM
- TGI (HCC 2998 [5]; read-out: pTGI (converted)): 3.47 µM
- GI50 (RPMI-8226 [6]; read-out: GI50): 1.81 µM
- CC50 (RPMI-8226 [6]; [28]): > 100 µM
- TGI (RPMI-8226 [6]; read-out: TGI): 4.33 µM
- GI50 (RPMI-8226 [6]; read-out: pGI50 (converted)): 1.82 µM
- CC50 (RPMI-8226 [6]; read-out: pLC50 (converted)): > 100 µM
- TGI (RPMI-8226 [6]; read-out: pTGI (converted)): 4.37 µM
- GI50 (CAKI-1 [7]; read-out: GI50): 1.63 µM
- CC50 (CAKI-1 [7]; [28]): 6.65 µM
- TGI (CAKI-1 [7]; read-out: TGI): 3.29 µM
- GI50 (CAKI-1 [7]; read-out: pGI50 (converted)): 1.62 µM
- CC50 (CAKI-1 [7]; [29]): 6.61 µM
- TGI (CAKI-1 [7]; read-out: pTGI (converted)): 3.31 µM
- Activity (HCC 2998 [8]): 99%
- GI50 (MOLT-4 [9]; read-out: GI50): 1.98 µM
- CC50 (MOLT-4 [9]; [28]): 11.5 µM
- TGI (MOLT-4 [9]; read-out: TGI): 4.45 µM
- GI50 (MOLT-4 [9]; read-out: pGI50 (converted)): 2 µM
- CC50 (MOLT-4 [9]; [29]): 11.5 µM
- TGI (MOLT-4 [9]; read-out: pTGI (converted)): 4.47 µM
- Activity (MOLT-4 [10]): 92%
- Activity (HCC 2998 [11]): 102%
- Activity (CAKI-1 [12]): 86%
- Activity (CAKI-1 [13]): 85%
- Activity (RPMI-8226 [14]): -46%
- Activity (CAKI-1 [15]): 97%

Structure (SMILES): O=C(CCCn1c2c(sc3ccccc32)c(=O)n2nnc(-c3ccccc3)c12)NCCc1c[nH]cn1
- Activity (PC-3 [16]): 40%
- Activity (Mus musculus): Non-toxic
- Activity (PC-3 [17]): 33%
- Activity (PC-3 [18]): -51%
- Activity (HT-29 [19]): 113%
- Activity (HT-29 [20]): -100%
- Activity (HT-29 [21]): 84%
- GI50 (HT-29 [22]; read-out: GI50): 0.674 µM
- CC50 (HT-29 [22]; [28]): 4.55 µM
- TGI (HT-29 [22]; read-out: TGI): 2.01 µM
- GI50 (HT-29 [22]; read-out: pGI50 (converted)): 0.676 µM
- CC50 (HT-29 [22]; [29]): 4.57 µM
- TGI (HT-29 [22]; read-out: pTGI (converted)): 2 µM

Structure (SMILES): O=C(O)CCCn1c2c(sc3ccccc32)c(=O)n2nnc(-c3ccccc3)c12
- Activity [23]: 88%
- Activity [24]: 105%
- Activity [25]: 102%
- Activity [26]: 95%
- Activity [27]: 90%
